Target: T1, 5-epi-aristolochene synthase (TEAS) (Nicotiana tabacum, UniProt Q40577)
T1 sequence (Q40577 1-548): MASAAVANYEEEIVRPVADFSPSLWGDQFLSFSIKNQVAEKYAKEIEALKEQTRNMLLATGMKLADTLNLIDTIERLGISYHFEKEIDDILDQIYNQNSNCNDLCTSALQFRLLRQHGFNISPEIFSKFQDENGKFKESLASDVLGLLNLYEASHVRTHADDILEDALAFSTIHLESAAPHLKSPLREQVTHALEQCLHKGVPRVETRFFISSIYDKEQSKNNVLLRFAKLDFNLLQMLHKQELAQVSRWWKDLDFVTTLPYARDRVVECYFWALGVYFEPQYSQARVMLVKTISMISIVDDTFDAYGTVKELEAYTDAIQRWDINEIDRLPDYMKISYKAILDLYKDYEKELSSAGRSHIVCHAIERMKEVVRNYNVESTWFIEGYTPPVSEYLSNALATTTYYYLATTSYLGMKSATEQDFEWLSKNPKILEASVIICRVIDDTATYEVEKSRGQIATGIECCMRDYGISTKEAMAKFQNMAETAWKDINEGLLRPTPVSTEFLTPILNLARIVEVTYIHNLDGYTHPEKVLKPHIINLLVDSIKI
Assay: crystal structure
Format: biochemical

- Ki: 380 nM
Compound: C/C(=C\COP(=O)(O)OP(=O)(O)O)CC/C=C(\C)CNc1ccccc1 [compound 4, AGPP]

— paper PMC4570970 (ACS chemical biology, 2015)
